Measured values published in publication PMC5547389, “Structure-activity relationships and molecular docking studies of chromene and chromene based azo chromophores: A novel series of potent antimicrobial and anticancer agents” (EXCLI Journal, 2017).
Values after ≈ are worked out from the molar mass of the structure shown.

Experiments:
[1] = tested on: human hepatocellular carcinoma (HEPG-2); assay: Cytotoxic screening; format: cell-based; conditions: HepG2, read-out: IC50 HepG-2
Procedure: (§1) Human colon carcinoma (HCT-116), human hepatocellular carcinoma (HEPG-2), adenocarcinomic human alveolar basal epithelial cell (A-549), and human breast adenocarcinoma (MCF-7) cell lines were obtained from the American Type Culture Collection (ATCC, Rockville, MD). The cells were grown on RPMI-1640 medium supplemented with 10 % inactivated fetal calf serum and 50 µg/ml gentamycin. The cells were maintained at 37 °C in a humidified atmosphere with 5 % CO2 and were subcultured two to three times a week. Potential cytotoxicity of the compounds was evaluated on tumor cells using the method of Gangadevi and Muthumary (2007[21]) (Klancnik et al., 2010[36]). The cells were grown as monolayers in growth RPMI-1640. The monolayers of 104 cells adhered at the bottom of the wells in a 96-well microtiter plate incubated for 24 h at 37 °C in a humidified incubator with 5 % CO2. The monolayers were then washed with sterile phosphate buffered saline (0.01 M pH 7.2) and simultaneously the cells were treated with 100 µL from different dilutions of tested sample in fresh maintenance medium and incubated at 37 °C. A control of untreated cells was made in the absence of tested sample. Positive controls containing doxorubicin were also tested as a reference drug for comparison. Six wells were used for each concentration of the test sample. Every 24 hours an observation under the inverted microscope was made. The number of the surviving cells was determined by staining the cells with crystal violet (Mosmann, 1983[42]; Gangadevi and Muthumary, 2007[21]) followed by cell lysing using 33 % glacial acetic acid and reading the absorbance at 590 nm using microplate reader (SunRise, TECAN, Inc, USA) after well mixing. The absorbance values from untreated cells were considered as 100 % proliferation. The number of viable cells was determined using microplate reader as previously mentioned before and the percentage of […] was calculated as [1-(ODt/ODc)] x 100 % where ODt is the mean optical density of wells treated with the tested sample and ODc is the mean optical density of untreated cells. The relation between surviving cells and drug concentration was plotted to get the survival curve of each tumor cell line after treatment with the specified compound. The 50 % inhibitory concentration (IC50), the concentration required to cause toxic effects in 50 % of intact cells, was estimated from graphic plots.
(§2) The in vitro cytotoxic activity was performed by MTT assay (Mosmann, 1983[42]; Alley et al., 1988[6]) against three human carcinoma cell lines: Human colon carcinoma (HCT-116), human breast adenocarcinoma (MCF-7), and human hepatocellular carcinoma (HEPG-2).

[2] = tested on: human breast adenocarcinoma (MCF-7); assay: Cytotoxic screening; format: cell-based; conditions: Homo sapiens, MCF7; read-out: IC50 MCF-7
Procedure: as §1, §2

[3] = tested on: Human colon carcinoma (HCT-116); assay: Cytotoxic screening; format: cell-based; conditions: Homo sapiens, HCT-116; read-out: IC50 HCT-116
Procedure: as §1, §2

[4] = tested on: Syncephalastrum racemosum (RCMB 05922); assay: MIC by serial dilution method; format: cell-based; conditions: RCMB05922, fungi, read-out: Minimum inhibitory concentration, MIC, S.R
Procedure: (§3) All the newly synthesized compounds described in this report were screened for both antibacterial and antifungal activity via the reported agar diffusion well method (Vanden Berghe and Vlietinck, 1991[62]). The inhibition zones and minimum inhibitory concentrations (MIC) were determined by the serial dilution method (Cappuccino and Sherman, 1999[12]). The antimicrobial activity of the synthesized compounds was tested against a broad panel of microorganisms including two Gram-positive bacteria: Streptococcus pneumoniae (RCMB 010010) and Bacillus subtilis (RCMB 010067), two Gram-negative bacteria: Pseudomonas aeruginosa (RCMB 010043) and Escherichia coli (RCMB 010052), and four fungi: Aspergillus fumigatus (RCMB 02568), Syncephalastrum racemosum (RCMB 05922), Geotricum candidum (RCMB 05097), and Candida albicans (RCMB 05036). Ampicillin, ciprofloxacin, gentamicin and amphotericin B were used as positive control drugs (Atta-ur-Rahman and Thomsen, 2001[7]; Smania et al., 1999[57]). […] While in the case of Gm-ve bacteria, they had weak activity. In addition, certain strains of fungi were sensitive to tested compounds with an IZ range from 12-25 except Candida albicans.

[5] = tested on: Streptococcus pneumoniae (RCMB 010010); assay: MIC by serial dilution method; format: cell-based; conditions: RCMB010010, Gm+ve, read-out: Minimum inhibitory concentration, MIC, S.P
Procedure: as §3

[6] = tested on: Bacillus subtilis (RCMB 010067); assay: MIC by serial dilution method; format: cell-based; conditions: RCMB010067, Gm+ve, read-out: Minimum inhibitory concentration, MIC, B.S
Procedure: as §3

[7] = tested on: Aspergillus fumigatus (RCMB 02568); assay: MIC by serial dilution method; format: cell-based; conditions: RCMB02568, fungi, read-out: Minimum inhibitory concentration, MIC, A.F
Procedure: as §3

[8] = tested on: Geotricum candidum (RCMB 05097); assay: MIC by serial dilution method; format: cell-based; conditions: fungi; read-out: Minimum inhibitory concentration, MIC, G.C
Procedure: as §3

[9] = tested on: Escherichia coli (RCMB 010052); assay: MIC by serial dilution method; format: cell-based; conditions: RCMB010052, Gm-ve, read-out: Minimum inhibitory concentration, MIC, E.C
Procedure: as §3

[10] = tested on: Syncephalastrum racemosum (RCMB 05922); assay: Well diffusion assay (inhibition zone); format: cell-based; conditions: RCMB05922, 5 mg/mL in DMSO, fungi, read-out: Inhibition Zone (IZ) diameter, S.R
Procedure: (§4) The microorganism inoculums were uniformly spread using sterile cotton swabs on a sterile Petri dish malt extract agar (for fungi) and nutrient agar (for bacteria). One hundred cubic millimeters of each sample was added to each well (10 mm-diameter holes were cut in the agar gel, 20 mm apart from one another). The systems were incubated for 24-48 h at 37 °C (for bacteria) and at 28 °C (for fungi). After incubation, the microorganism growth was observed. Inhibition zones of the bacterial and fungal growth were measured in millimeters. Tests were performed in triplicate (Cappuccino and Sherman, 1999[12]; Vanden Berghe and Vlientinck, 1991[62]).
as §3

[11] = tested on: Streptococcus pneumoniae (RCMB 010010); assay: Well diffusion assay (inhibition zone); format: cell-based; conditions: RCMB010010, 5 mg/mL in DMSO, Gm+ve, read-out: Inhibition Zone (IZ) diameter, S.P
Procedure: as §4, §3

[12] = tested on: Bacillus subtilis (RCMB 010067); assay: Well diffusion assay (inhibition zone); format: cell-based; conditions: RCMB010067, 5 mg/mL in DMSO, Gm+ve, read-out: Inhibition Zone (IZ) diameter, B.S
Procedure: as §4, §3

[13] = tested on: Aspergillus fumigatus (RCMB 02568); assay: Well diffusion assay (inhibition zone); format: cell-based; conditions: RCMB02568, 5 mg/mL in DMSO, fungi, read-out: Inhibition Zone (IZ) diameter, A.F
Procedure: as §4, §3

[14] = tested on: Geotricum candidum (RCMB 05097); assay: Well diffusion assay (inhibition zone); format: cell-based; conditions: 5 mg/mL in DMSO; fungi; read-out: Inhibition Zone (IZ) diameter, G.C
Procedure: as §4, §3

[15] = tested on: Escherichia coli (RCMB 010052); assay: Well diffusion assay (inhibition zone); format: cell-based; conditions: RCMB010052, 5 mg/mL in DMSO, Gm-ve, read-out: Inhibition Zone (IZ) diameter, E.C
Procedure: as §4, §3

[16] = tested on: Pseudomonas aeruginosa (RCMB 010043); assay: MIC by serial dilution method; format: cell-based; conditions: RCMB010043, Gm-ve, read-out: Minimum inhibitory concentration, MIC, P.A
Procedure: as §3

[17] = tested on: Pseudomonas aeruginosa (RCMB 010043); assay: Well diffusion assay (inhibition zone); format: cell-based; conditions: RCMB010043, 5 mg/mL in DMSO, Gm-ve, read-out: Inhibition Zone (IZ) diameter, P.A
Procedure: as §4, §3

SMILES | MIC [4] [µg/mL] | MIC [5] [µg/mL] | MIC [6] [µg/mL] | MIC [7] [µg/mL] | MIC [8] [µg/mL] | MIC [9] [µg/mL] | MIC [16] [µg/mL] | melting point [°C] | IC50 [1] [µg/mL] | IC50 [2] [µg/mL] | IC50 [3] [µg/mL] | zone of inhibition at 5000 µg/mL [10] [mm] | zone of inhibition at 5000 µg/mL [11] [mm] | zone of inhibition at 5000 µg/mL [12] [mm] | zone of inhibition at 5000 µg/mL [13] [mm] | zone of inhibition at 5000 µg/mL [14] [mm] | zone of inhibition at 5000 µg/mL [15] [mm] | zone of inhibition at 5000 µg/mL [17] [mm]
COc1ccc(C2C(C#N)=C(N)Oc3c(N)cc4ccccc4c32)cc1 (stereo not shown) [4d, 3,5-diamino-1-(4-methoxy-phenyl)-1H-benzo[f]chromene-2-carbonitrile] | 62.5 (≈ 182 µM) | 7.81 (≈ 22.7 µM) | 0.007 (≈ 0.0204 µM) | 0.98 (≈ 2.85 µM) | 0.06 (≈ 0.175 µM) | 15.6 (≈ 45.5 µM) | 125 (≈ 364 µM) | 183 | 2.64 (≈ 7.69 µM) | 4.68 (≈ 13.6 µM) | 4.79 (≈ 13.9 µM) | 16.5 | 19.5 | 29.8 | 22.3 | 25.8 | 17.6 | 12.3
O=C(O)c1cn(C2CC2)c2cc(N3CCNCC3)c(F)cc2c1=O [Ciprofloxacin, reference compound] |  |  |  |  |  | 0.49 (≈ 1.48 µM) | 0.99 (≈ 2.99 µM) |  |  |  |  |  |  |  |  |  | 25.3 | 22.3
N#CC1=C(N)Oc2cc(O)c(N=Nc3cccc(O)c3)cc2C1c1ccccc1F (stereo not shown) [13k, 2-Amino-4-(2-fluoro-phenyl)-7-hydroxy-6-(3-hydroxy-phenylazo)-4H-chromene-3-carbonitrile] | 3.9 (≈ 9.69 µM) | 0.98 (≈ 2.44 µM) | 0.49 (≈ 1.22 µM) | 15.6 (≈ 38.8 µM) | 1.95 (≈ 4.85 µM) | 15.6 (≈ 38.8 µM) | 31.2 (≈ 77.7 µM) | 280 | 41.8 (≈ 104 µM) | 44.1 (≈ 110 µM) | 71.4 (≈ 177 µM) | 17.1 | 22.6 | 24.3 | 19.4 | 21.3 | 18.6 | 17.1

More lines, in order of falling MIC [9], values ahead:

MIC [4] [µg/mL] | MIC [5] [µg/mL] | MIC [6] [µg/mL] | MIC [7] [µg/mL] | MIC [8] [µg/mL] | MIC [9] [µg/mL] | MIC [16] [µg/mL] | melting point [°C] | SMILES | IC50 [1] [µg/mL] | IC50 [2] [µg/mL] | IC50 [3] [µg/mL] | zone of inhibition at 5000 µg/mL [10] [mm] | zone of inhibition at 5000 µg/mL [11] [mm] | zone of inhibition at 5000 µg/mL [12] [mm] | zone of inhibition at 5000 µg/mL [13] [mm] | zone of inhibition at 5000 µg/mL [14] [mm] | zone of inhibition at 5000 µg/mL [15] [mm] | zone of inhibition at 5000 µg/mL [17] [mm]
125 (≈ 482 µM) | 31.2 (≈ 121 µM) | 7.81 (≈ 30.1 µM) | 62.5 (≈ 241 µM) | 15.6 (≈ 60.3 µM) | 125 (≈ 482 µM) |  |  | O=[N+]([O-])c1ccc(N=Nc2ccc(O)cc2O)cc1 [12c, 4-(4-Nitro-phenylazo)-benzene-1,3-diol] | 21.2 (≈ 81.8 µM) | 24 (≈ 92.6 µM) | 30.2 (≈ 117 µM) | 14.2 | 17.2 | 18.6 | 16.4 | 17.9 | 13.5 | 
3.9 (≈ 9.06 µM) | 0.12 (≈ 0.279 µM) | 0.06 (≈ 0.139 µM) | 0.98 (≈ 2.28 µM) | 0.49 (≈ 1.14 µM) | 3.9 (≈ 9.06 µM) | 3.9 (≈ 9.06 µM) | 243 | N#CC1=C(N)Oc2cc(O)c(N=Nc3ccc(C(=O)O)cc3)cc2C1c1ccccc1F (stereo not shown) [13e, 4-[2-Amino-3-cyano-4-(2-fluoro-phenyl)-7-hydroxy-4H-chromen-6-ylazo]-benzoic acid] | 20.5 (≈ 47.6 µM) | 27.9 (≈ 64.8 µM) | 46.7 (≈ 109 µM) | 19.3 | 23.6 | 25.2 | 21.3 | 21.8 | 19.3 | 19.3
